This note sets out measurements from patent US9334268B2, “4-amino-imidazoquinoline compounds” (Hoffmann-La Roche Inc., priority 2014, dated 2016).

Counter-ions that a name gives are not always drawn. Where only a bound is given, the exact number is not on record here.

In one experiment the target is human TLR8 (Homo sapiens (Human), UniProt Q9NR97). The experiment is described as follows: HEK-Blue human TLR8 SEAP reporter assay. Type of experiment: cell-based. The conditions noted are these: HEK-Blue human TLR8 cells, NF-κB-regulated SEAP reporter, stimulation for 24 hr. As to the method:
(§1) For TLR8 and TLR7 activity testing, HEK-Blue human TLR8 or TLR7 cells, respectively, (Invivogen, San Diego, Calif., USA) transfected with a SEAP reporter (secreted embryonic alkaline phosphatase) construct were used, in which the reporter expression is regulated by the NF-κB promoter upon stimulation for 24 hr. The reporter activity was determined using Quanti Blue kit (Invivogen, San Diego, Calif., USA) at a wavelength of 640 nm.
(§2) EC50 values were determined using Activity Base analysis (ID Business Solution, Limited).

The next experiment addresses human TLR7 (Homo sapiens (Human), UniProt Q9NYK1). The experiment is described as follows: HEK-Blue human TLR7 SEAP reporter assay. The conditions noted are these: for EC50: HEK-Blue human TLR7 cells, NF-κB-regulated SEAP reporter, stimulation for 24 hr. In kind it is cell-based. The method, then:
as §1, §2

human TLR8, sequence (Q9NR97 27-1041): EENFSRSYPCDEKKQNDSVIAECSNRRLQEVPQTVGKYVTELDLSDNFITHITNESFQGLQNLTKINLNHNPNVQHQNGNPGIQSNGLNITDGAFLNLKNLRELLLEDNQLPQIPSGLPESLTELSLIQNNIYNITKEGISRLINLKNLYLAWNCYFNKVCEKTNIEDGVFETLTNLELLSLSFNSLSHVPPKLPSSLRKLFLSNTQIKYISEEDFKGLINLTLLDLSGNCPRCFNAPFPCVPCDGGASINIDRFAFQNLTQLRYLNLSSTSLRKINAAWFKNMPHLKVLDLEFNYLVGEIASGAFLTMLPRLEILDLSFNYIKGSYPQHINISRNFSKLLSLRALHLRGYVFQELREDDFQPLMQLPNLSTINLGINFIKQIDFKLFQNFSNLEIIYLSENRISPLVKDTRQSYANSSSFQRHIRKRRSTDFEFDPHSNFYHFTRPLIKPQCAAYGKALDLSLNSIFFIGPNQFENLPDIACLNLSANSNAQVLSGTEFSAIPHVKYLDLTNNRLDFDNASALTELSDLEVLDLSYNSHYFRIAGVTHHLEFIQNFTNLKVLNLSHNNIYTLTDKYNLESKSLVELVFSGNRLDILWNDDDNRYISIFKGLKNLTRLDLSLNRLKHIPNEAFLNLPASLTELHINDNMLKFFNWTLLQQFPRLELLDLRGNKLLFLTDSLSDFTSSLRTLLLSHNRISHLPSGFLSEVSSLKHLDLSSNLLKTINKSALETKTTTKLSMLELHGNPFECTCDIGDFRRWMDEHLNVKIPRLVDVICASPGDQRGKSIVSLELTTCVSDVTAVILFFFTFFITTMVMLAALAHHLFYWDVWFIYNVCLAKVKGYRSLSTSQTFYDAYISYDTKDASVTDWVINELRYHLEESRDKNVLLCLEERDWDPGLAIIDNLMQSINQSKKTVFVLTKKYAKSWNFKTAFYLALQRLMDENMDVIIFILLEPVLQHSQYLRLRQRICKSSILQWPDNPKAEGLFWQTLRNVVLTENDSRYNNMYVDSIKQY
human TLR7, sequence (Q9NYK1 27-1049): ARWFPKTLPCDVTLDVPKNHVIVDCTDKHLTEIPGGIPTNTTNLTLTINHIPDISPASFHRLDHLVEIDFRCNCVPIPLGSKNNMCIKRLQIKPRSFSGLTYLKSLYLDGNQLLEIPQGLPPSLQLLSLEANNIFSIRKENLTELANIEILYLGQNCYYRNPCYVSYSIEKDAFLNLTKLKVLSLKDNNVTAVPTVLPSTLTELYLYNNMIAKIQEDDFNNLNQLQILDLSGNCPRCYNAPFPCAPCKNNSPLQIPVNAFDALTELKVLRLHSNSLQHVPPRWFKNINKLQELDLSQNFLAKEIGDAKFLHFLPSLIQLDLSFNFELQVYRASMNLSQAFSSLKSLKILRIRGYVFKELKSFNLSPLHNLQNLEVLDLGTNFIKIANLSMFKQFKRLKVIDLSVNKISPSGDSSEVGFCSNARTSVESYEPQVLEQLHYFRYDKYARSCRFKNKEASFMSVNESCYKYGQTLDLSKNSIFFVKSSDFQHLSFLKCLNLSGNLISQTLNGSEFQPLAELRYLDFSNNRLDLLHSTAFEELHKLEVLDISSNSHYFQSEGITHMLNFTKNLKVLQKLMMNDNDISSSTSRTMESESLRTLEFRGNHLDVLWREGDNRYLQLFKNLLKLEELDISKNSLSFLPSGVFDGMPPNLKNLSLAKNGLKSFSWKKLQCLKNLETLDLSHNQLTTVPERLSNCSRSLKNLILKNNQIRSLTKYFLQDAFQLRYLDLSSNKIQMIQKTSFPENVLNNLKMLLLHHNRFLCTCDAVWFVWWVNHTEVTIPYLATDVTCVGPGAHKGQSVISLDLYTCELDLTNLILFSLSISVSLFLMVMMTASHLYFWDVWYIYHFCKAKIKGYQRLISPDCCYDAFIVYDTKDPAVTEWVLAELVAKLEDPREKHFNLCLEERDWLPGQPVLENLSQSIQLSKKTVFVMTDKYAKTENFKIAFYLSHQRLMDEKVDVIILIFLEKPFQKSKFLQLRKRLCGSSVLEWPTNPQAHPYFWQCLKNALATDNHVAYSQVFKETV

On to `CCOCc1nc2c(N)nc3ccccc3c2n1CCOCCN` [1-(2-(2-Aminoethoxy)ethyl)-2-(ethoxymethyl)-1H-imidazo[4,5-c]quinolin-4-amine, reference compound], for which the EC50 – broadly, the concentration giving half of the maximal effect – on human TLR8 is 49000 nM; on human TLR7, > 100000 nM. Also, on human TLR7 (statement in words, compared with resiquimod), the “cellular potency at TLR7” value is on record as “do not show the required activity”.

For `CCOCc1nc2c(N)nc3ccccc3c2n1CC(C)(C)OCCN` [Example 1, 1-(2-(2-Aminoethoxy)-2-methylpropyl)-2-(ethoxymethyl)-1H-imidazo[4,5-c]quinolin-4-amine], the values for the EC50 at human TLR8 and on human TLR7 were 580 nM and 60 nM, respectively.

For the molecule `CCOCc1nc2c(N)nc3ccccc3c2n1CC(C)(C)OC(=O)CN` [Example 2, 1-(4-Amino-2-(ethoxymethyl)-1H-imidazo[4,5-c]quinolin-1-yl)-2-methylpropan-2-yl 2-aminoacetate], the values for the EC50 on human TLR8 and at human TLR7 were 80 nM and 50 nM, respectively.

Take `CCOCc1nc2c(N)nc3ccccc3c2n1CC(C)(C)OCCNC(=O)c1cccnc1` [Example 3, N-(2-(1-(4-Amino-2-(ethoxymethyl)-1H-imidazo[4,5-c]quinolin-1-yl)-2-methylpropan-2-yloxy)ethyl)nicotinamide]: the EC50 at human TLR8 is 35000 nM; at human TLR7, 223 nM.

Take `CCOCc1nc2c(N)nc3ccccc3c2n1CC(C)(C)OCCNC(C)=O` [Example 4, N-(2-(1-(4-Amino-2-(ethoxymethyl)-1H-imidazo[4,5-c]quinolin-1-yl)-2-methylpropan-2-yloxy)ethyl)acetamide]: the concentration giving a half-maximal response (EC50) on human TLR7 is 27 nM.

For the molecule `CCOCc1nc2c(N)nc3ccccc3c2n1CC(C)(C)OCCNCCCO` [Example 5, 3-(2-(1-(4-Amino-2-(ethoxymethyl)-1H-imidazo[4,5-c]quinolin-1-yl)-2-methylpropan-2-yloxy)ethylamino)propan-1-ol], the EC50 at human TLR8 was found to be 10500 nM; on human TLR7 it was 900 nM.

Consider `CCOCc1nc2c(N)nc3ccccc3c2n1CC(C)(C)OCCNC(=O)CCCCCNC(=O)OC(C)(C)C` [Example 6, tert-Butyl 6-(2-(1-(4-amino-2-(ethoxymethyl)-1H-imidazo[4,5-c]quinolin-1-yl)-2-methylpropan-2-yloxy)ethylamino)-6-oxohexylcarbamate], for which the values for the EC50 on human TLR8 and at human TLR7 were 2900 nM and 195 nM, respectively.

For `CCOCc1nc2c(N)nc3cc(/C=C/C(=O)OCC)ccc3c2n1CC(C)(C)OCCN` [Example 7, (E)-Ethyl 3-(4-amino-1-(2-(2-aminoethoxy)-2-methylpropyl)-2-(ethoxymethyl)-1H-imidazo[4,5-c]quinolin-7-yl)acrylate], the figures for the EC50 on human TLR8 and at human TLR7 were 1080 nM and 139 nM, respectively.

In the case of `CCOCc1nc2c(N)nc3cc(CCC(=O)OCC)ccc3c2n1CC(C)(C)OCCN` [Example 8, Ethyl 3-(4-amino-1-(2-(2-aminoethoxy)-2-methylpropyl)-2-(ethoxymethyl)-1H-imidazo[4,5-c]quinolin-7-yl)propanoate hydrochloride], the concentration for a half-maximal effect (EC50) was determined as 256 nM on human TLR8 and 134 nM on human TLR7.

Take `CCOCc1nc2c(N)nc3cc(CCC(=O)OCC)ccc3c2n1CC(C)(C)OC(=O)CN` [Example 9, Ethyl 3-(4-amino-1-(2-(2-aminoacetoxy)-2-methylpropyl)-2-(ethoxymethyl)-1H-imidazo[4,5-c]quinolin-7-yl)propanoate]: the results for the EC50 at human TLR8 and at human TLR7 were 54 nM and 55 nM, respectively.

In the case of `CCCCCc1nc2c(N)nc3ccccc3c2n1CC(C)(C)OCCN` [Example 10, 1-(2-(2-Aminoethoxy)-2-methylpropyl)-2-pentyl-1H-imidazo[4,5-c]quinolin-4-amine], the 50% effective concentration (EC50) at human TLR8 was 2700 nM; at human TLR7 it was 152 nM.

Turning to `CCOCc1nc2c(N)nc3cc(Br)ccc3c2n1CC(C)(C)OCCN` [Example 11, 1-(2-(2-Aminoethoxy)-2-methylpropyl)-7-bromo-2-(ethoxymethyl)-1H-imidazo[4,5-c]quinolin-4-amine hydrochloride], the EC50 at human TLR8 is 2900 nM; on human TLR7, 130 nM.
